Measured values taken from patent US20260014358A1, “THERMALLY REGULATED TRANSDERMAL DRUG DELIVERY SYSTEM” (Morningside Venture Investments Limited, priority 2018, published 2026).
Like-named read-outs stand apart in the source and are kept apart here.

Settings: for Nicotine flow across the skin: passive matrix-type patch containing 21 mg nicotine on human cadaver skin, average of test patches (n=4)
Experimental: Experiments were carried out by applying passive matrix-type nicotine patches containing 21 mg of nicotine to human cadaver skin and then periodically heating and cooling the patches over a period of 20 hours. Controls with no heating and cooling were tested concurrently. The test patches were subject to 3 cycles of heating and cooling while the control patches were not. Patches were heated for 2 hours, cooled for 5 hours, heated for 2 hours, cooled for 4 hours, heated for 2 hours, and cooled. Nicotine delivery across the skin was measured and averaged for control patches (n=2) and test patches (n=4).

Question: For `CN1CCCC1c1cccnc1` (stereo not shown) [Nicotine], which “Nicotine flow across the skin” value (first 2-hour heating period) is on record?
Answer: The value was “around 4.9 mg/hr”.

Question: What about the “Change of nicotine flow across the skin when heat was applied” value (heated and cooled test patches, 3 cycles over 20 hours, human cadaver skin) of the same compound?
Answer: The value was “increased”.

Question: What about the “Nicotine flow across the skin” value (second 2-hour heating period (after 5 hours cooling)) of the same compound?
Answer: The value was “around 2.5 mg/hr”.

Question: What about the “Nicotine flow across the skin” value (third 2-hour heating period (after 4 hours cooling)) of the same compound?
Answer: Its value is “around 1.8 mg/hr”.
